Read-outs that look alike come from different tables or passages of the source.
Tests used:
[1] = system: cardiac contractility in anesthetized dogs; assay: Effect on cardiac contractility in anesthetized dogs, intravenous; format: in vivo, dog; details: intravenous administration; same effect as in isolated rat heart (Table IV)
[2] = system: plasma renin activity; assay: Inhibition of evoked (drug-induced) elevation of plasma renin activity in conscious rats; format: in vivo, male Wistar rats; details: Rattus norvegicus, 30 min before provocative treatment; for inhibition in vivo at 25 mg/kg: 25 mg/kg oral
Experimental: Inhibition of evoked increase of plasma renin activity was determined by the following test.
Compounds were tested for their ability to prevent drug-induced elevation of plasma renin activity (PRA) in concious, male Wistar rats (180-200 g, Charles River Lab.). PRA elevation was induced by a combined oral provacative treatment (C) of hydrochlorothiazide (10 mg/kg) and 1-(3-benzoyl-3-mercapto-2-methylpropionyl)-L-proline, acetate (U.S. Pat. No. 4,226,775) (one mg/kg), prepared by compounding in a mortar and pestle with preboiled 3% starch suspension. This treatment provided the daily maximum PRA. The daily minimum PRA was obtained from rats given oral starch suspension (S) alone. The magnitude of drug effect on PRA elevation was ascertained from rats pretreated orally with test agent (D), at the indicated doses, 30 minutes prior to administration of provacative treatment (C). The test agent was also compounded in preboiled 3% starch suspension. The dose volumes for both pretreatment and provocative treatment were 2 ml/kg. One hour after provocative treatment the rats were sacrificed by decapitation and the first 3 seconds of blood collected in two chilled Vacutainer® tubes (Becton-Dickinson, Rutherford, N.J.) containing 40 μl of 150 mg/ml tripotassium EDTA. The plasma fractions, obtained by centrifugation for 20 minutes at 4° C. and 3000 G, were incubated (one of each pair at 37° C., the other at 4° C.) at pH 6.8 in 50 mM phosphate buffer to produce angiotensin I. The incubates contained peptidase inhibitors to prevent angiotensin I degradation and the incubation buffer contained one mg/ml lysozyme (Sigma Grade III) used as an antiabsorbant. The incubates were diluted 20 fold in cold 100 mM Tris buffer (pH adjusted to 7.4 with glacial acetic acid) also containing one mg/ml lysozyme, and then frozen. Diluted incubates were assayed within 3 days for angiotensin I content by radioimmunoassay according to a modification of the method of Haber, et al., J. Clin. Endocrin., 29, 1349-1355 (1969).
PRA is calculated as follows:
PRA(ng AI/hour/ml plasma)=PRA 37° C.-PRA 4° C.
Percent inhibition of PRA elevation is calculated as follows: [formula]

[3] = system: plasma renin activity; assay: Lowering of plasma renin activity in normal conscious rats; format: in vivo, male Wistar rats; details: single 25 mg/kg oral dose, 6 rats
Experimental: Compounds were tested for their ability to lower plasma renin activity of conscious, male Wistar rats (180-200 g, Charles River Labs.). Test agents were compounded in a mortar and pestle with 3% preboiled starch suspension. Rats were dosed orally by gavage with 25 mg/kg test agent in a dose volume of 2 ml/kg. At time zero and 1/3, 1, 3 and 6 hours relative to dosing, rats were sacrificed by decapitation and the first 3 seconds of blood collected in two chilled Vacutainer® tubes (Becton-Dickinson, Rutherford, N.J.) containing 40 μl of 150 mg/ml tripotassium EDTA. Plasma fractions, obtained by centrifugation for 20 minutes at 4° C. and 3000 G, were incubated (one of each pair at 37° C., the other at 4° C.) at pH 6.8 in 50 mM phosphate buffer to produce angiotensin I. The incubates contained peptidase inhibitors to prevent angiotensin I degradation and the buffer contained one mg/ml lysozyme (Sigma Grade III) used as an antiabsorbant. The incubates were diluted 20 fold in cold Tris buffer (pH adjusted to 7.4 with glacial acetic acid) also containing one mg/ml lysozyme, and then frozen. Diluted incubates were assayed within 3 days for angiotensin I content by radioimmunoassay according to a modification of the method of Haber, et al., J. Clin. Endocrin., 29, 1349-1355 (1969). Renin activity is calculated as the rate of production of angiotensin I (nanograms of angiotensin I/ml plasma/hour at 37° C.) less controls (rate at 4° C.).

[4] = system: isolated rat hearts; assay: Cardiodynamic effects in the isolated perfused rat heart preparation; details: for activation at 1 µg/mL / activation at 4 µg/mL / activation at 8 µg/mL: Rattus norvegicus; for HR (mean % change): rate of cardiac contraction
Experimental: The effect of (triphenylphospharnylidene)carbamic acid, ethyl ester on cardiac contractility was determined by the following test.
Isolated rat hearts were prepared and perfused essentially as described by Neely and Rovetto, Techniques for perfusing isolated rat hearts., in Methods of Enzymology, 24, part D, 43-60 (1975), J. G. Hardman and B. W. O'Malley (eds.), Academic Press, New York, N.Y. The hearts were cooled in ice cold saline and transferred to a Langendorff apparatus and perfused in a retrograde fashion with oxygenated Krebs-Henseleit buffer at 37° C. A 2-0 silk thread was secured to the left ventricular apex and run via pulleys to a force displacement transducer (Grass Instrument Co., model FT03C). Force of contraction (F), the first derivative of force with respect to time (dF/dt), and rate of cardiac contraction (HR) were monitored on a polygraph recorder (Grass Instrument Co., model 7D).
The perfusion medium was a modified Krebs-Henseleit buffer of the following composition:
This medium was equilibrated with 95% oxygen:5% carbon dioxide at 37° C.
(Triphenylphosphoranylidene)carbamic acid, ethyl ester was dissolved in absolute ethanol at a concentration of 10 mg/ml and then diluted with Krebs-Henseleit buffer to the required stock concentration. The stock solution was infused at a constant rate by a syringe pump into the flow of buffer presented to the isolated heart at a rate necessary to achieve the desired final concentration.

[5] = system: spontaneously hypertensive rats (SHR); assay: Diuretic activity in spontaneously hypertensive rats; format: in vivo, male spontaneously hypertensive rats (Okamoto strain); details: 100 mg/kg by gavage with 0.9% sodium chloride loading 25 ml/kg; 0-5 hour urine
Experimental: The diuretic activity of the compounds of this invention was also determined according to the method of Chan, P. S. and Poorvin, D., Sequential method for combined screening antihypertensive and diuretic agents in the same spontaneously hypertensive rat. Clinical and Experimental Hypertension, 1(6), 817-830 (1979).
Male spontaneously hypertensive rats (SHR) of Okamoto strain, 16 weeks old, Taconic Farms Inc. were used in the test. These rats were kept on Purina laboratory chow and tap water ad libitum for 8 weeks before use. One male adult rat (about 300 g) was dosed by gavage with a test compound at 100 mg/kg together with 0.9% sodium chloride loading at 25 ml/kg at zero hour. The test compound was suspended in 3% preboiled starch at 50 mg/ml. The rat was put in a metabolism cage. The 0-5 hour urine was collected and urinary sodium and potassium were determined using a Beckman Astra 4. The effects of representative compounds of the invention according to this test appear in Table III expressed in milliequivalents (mEQ) of urinary sodium and potassium excreted.

In the case of `CCOC(=O)N=P(c1ccccc1)(c1ccccc1)c1ccccc1` [(Triphenylphosphoranylidene)carbamic acid, ethyl ester], the “effect on cardiac contractility in anesthetized dogs” value [1] is reported as “The same effect has been achieved”, the inhibition in vivo at 3 mg/kg ([2]; 3 mg/kg oral) is reported as 22% and the inhibition in vivo at 5 mg/kg ([2]; 5 mg/kg oral) is reported as 29%. For the same molecule, the inhibition in vivo at 7 mg/kg ([2]; 7 mg/kg oral) was 46%, the inhibition in vivo at 10 mg/kg ([2]; 10 mg/kg oral) was 81% and the inhibition in vivo at 15 mg/kg ([2]; 15 mg/kg oral) was 79%. The inhibition in vivo at 25 mg/kg [2] was 80%, the “% Lowering of plasma renin activity” value ([3]; 0 hours after dose) was 0% and the “% Lowering of plasma renin activity” value ([3]; 1/3 hour after dose) was 38%. For the same molecule, the “% Lowering of plasma renin activity” value ([3]; 1 hour after dose) was 74%, the “% Lowering of plasma renin activity” value ([3]; 3 hours after dose) was 59% and the “% Lowering of plasma renin activity” value ([3]; 6 hours after dose) was 40%. The activation at 1 µg/mL ([4]; final drug concentration 1 mg/liter, 7 hearts, read-out: Concentration Force (g) (mean % change)) was 5%, the activation at 1 µg/mL ([4]; final drug concentration 1 mg/liter, 7 hearts, read-out: dF/dt (g/sec) (mean % change)) was 6% and the activation at 4 µg/mL ([4]; final drug concentration 4 mg/liter, 6 hearts, read-out: Concentration Force (g) (mean % change)) was 18%. For the same molecule, the activation at 4 µg/mL ([4]; final drug concentration 4 mg/liter, 6 hearts, read-out: dF/dt (g/sec) (mean % change)) was 16%, the activation at 8 µg/mL ([4]; final drug concentration 8 mg/liter, 5 hearts, read-out: Concentration Force (g) (mean % change)) was 24% and the activation at 8 µg/mL ([4]; final drug concentration 8 mg/liter, 5 hearts, read-out: dF/dt (g/sec) (mean % change)) was 21%. The “HR (mean % change)” value ([4]; final drug concentration 1 mg/liter, 7 hearts) was -3 mean % change, the “HR (mean % change)” value ([4]; final drug concentration 4 mg/liter, 6 hearts) was -2 mean % change and the “HR (mean % change)” value ([4]; final drug concentration 8 mg/liter, 5 hearts) was -2 mean % change. For the same molecule, the “Potassium (urinary excretion)” value [5] was 0.50 mEQ/5 Hours, the “Sodium (urinary excretion)” value [5] was 1.86 mEQ/5 Hours and the “Volume (urine)” value [5] was 15.5 mL.
In the case of `O=C(N=P(c1ccccc1)(c1ccccc1)c1ccccc1)OC1CCOC1` (centres unmarked) [(Triphenylphosphoranylidene)carbamic acid, tetrahydro-3-furanyl ester], the inhibition in vivo at 25 mg/kg [2] is reported as 69%, the inhibition in vivo at 50 mg/kg ([2]; 50 mg/kg oral) is reported as 49% and the inhibition in vivo at 100 mg/kg ([2]; 100 mg/kg oral) is reported as 85%. The “Potassium (urinary excretion)” value [5] was 0.70 mEQ/5 Hours, the “Sodium (urinary excretion)” value [5] was 1.10 mEQ/5 Hours and the “Volume (urine)” value [5] was 14.8 mL.
`Cc1ccccc1P(=NC(=O)OCC1CC1)(c1ccccc1)c1ccccc1` [[(2-methylphenyl)diphenylphosphoranylidene]carbamic acid, cyclopropylmethyl ester] was tested, and the inhibition in vivo at 25 mg/kg [2] was 72%, the “Potassium (urinary excretion)” value [5] was 0.73 mEQ/5 Hours and the “Sodium (urinary excretion)” value [5] was 1.33 mEQ/5 Hours. The “Volume (urine)” value [5] was 12.0 mL.
With `COC(=O)N=P(c1ccccc1)(c1ccccc1)c1ccccc1` [(Triphenylphosphoranylidene)carbamic acid, methyl ester] the inhibition in vivo at 25 mg/kg [2] was 72%, the “Potassium (urinary excretion)” value [5] was 0.55 mEQ/5 Hours and the “Sodium (urinary excretion)” value [5] was 2.53 mEQ/5 Hours. For the same molecule, the “Volume (urine)” value [5] was 23.3 mL.
`O=C(N=P(c1ccccc1)(c1ccccc1)c1ccccc1)OCc1cccnc1` [(triphenylphosphoranylidene)carbamic acid, 3-pyridinylmethyl ester] was tested, and the inhibition in vivo at 25 mg/kg [2] was 40%, the “Potassium (urinary excretion)” value [5] was 1.00 mEQ/5 Hours and the “Sodium (urinary excretion)” value [5] was 1.60 mEQ/5 Hours. For the same molecule, the “Volume (urine)” value [5] was 14.5 mL.
With `COC(=O)N=P(c1ccccc1)(c1ccccc1)c1ccccc1C(F)(F)F` [[diphenyl[2-(trifluoromethyl)phenyl]phosphoranylidene]carbamic acid, methyl ester] the inhibition in vivo at 25 mg/kg [2] was 49%, the “Potassium (urinary excretion)” value [5] was 1.02 mEQ/5 Hours and the “Sodium (urinary excretion)” value [5] was 1.71 mEQ/5 Hours. For the same molecule, the “Volume (urine)” value [5] was 18.5 mL.
In the case of `Cc1ccccc1P(=NC(=O)OCc1cccnc1)(c1ccccc1)c1ccccc1` [[(2-Methylphenyl)diphenylphosphoranylidene]carbamic acid, 3-pyridinylmethylester], the inhibition in vivo at 25 mg/kg [2] is reported as 75%, the “Potassium (urinary excretion)” value [5] is reported as 0.62 mEQ/5 Hours and the “Sodium (urinary excretion)” value [5] is reported as 1.48 mEQ/5 Hours. For the same molecule, the “Volume (urine)” value [5] was 12.3 mL.
